According to patent publication US10100096B2, “Tissue protective peptides and uses thereof” (Araim Pharmaceuticals, Inc., priority 2005, dated 2018):
Entries after “also recorded” stand apart in the source; their conditions may differ. No end group written: not given here.

What was measured:
[1] = tested on: right sciatic nerve of rats; test: Sciatic nerve assay (in vivo sciatic nerve injury model); set-up: species or system rat; settings: Example 2, Table 1, FIG. 1, FIG. 2, comparison with carbamylated EPO
Description: The tissue protective peptides were tested for any tissue protective activity using a Sciatic Nerve Assay. Sprague-Dawley rats (250-300 grams) (six per group, including control) were anesthetized using isoflurane (Baxter NPC 10019-773-60) and a Table Top Laboratory Anesthesia System (flowmeter set to 2-3 liters/minute @55 psi) for at least 3 minutes. The rat was then placed on a homeothermic blanket to ensure that the core temperature of the rat was maintained at 35-37° C. during the operation. Core temperature was monitored via a rectal probe. The right sciatic nerve of the anesthetized rat was exposed at mid thigh through a quadriceps muscle dissection; a 2 cm incision with a 15 blade scalpel was made through the skin parallel and over the quadriceps muscle and the quadriceps muscle was cut to expose the sciatic nerve using a pair of dissecting scissors. The sciatic nerve was then freed from the surrounding membranes. A 2-0 braided silk thread (Ethicon, 685-G) was passed under the nerve and the ends of the suture passed through a guide which was maintained perpendicular to the nerve. The end of the suture was then tied to a non-elastic cord which was then draped around the pulley system (a NYL pulley bearing MTD ¼″ B (PO Number 04174-01) with stabilizer) and a 100 gram weight attached to the non-elastic cord was slowly released. The weight was allowed to hang for 1 minute before the silk suture was cut to release the weight.
A 289 pmol/kg dose of carbamylated erythropoietin, a 289 pmol/kg dose of one peptide from the series A-J (see Table 1), or PBS was then injected into the caudal vein using a ½ cc insulin syringe.
The muscle and surgical incision were then closed and 5 ml of Lactated Ringers solution was injected subcutaneously into the rat. The core temperature of the rat was maintained at 35-37° C. using a heat blanket during recovery.
Over the next four days the rear toe splaying of the rats was determined by placing the rat in an acrylic tube with a diameter of 30 cm on the scanning surface of a digital scanner. […] Three acceptable scans of each rat were taken. From the scans, the Toe Spread (the distance between the ball of the first toe and the ball of the fifth toe) and the Intermediate Toe Spread (the distance between the ball of the second toe and the ball of the fourth toe) were measured. The static sciatic index was then computed in accordance with S. Erbayraktar et al., 2003, Proc Natl Acad Sci USA 100, 6741-6746 (hereby incorporated by reference in its entirety) and statistical analysis performed.

[2] = tested on: experimental autoimmune encephalomyelitis in mice; test: Murine EAE model; type: in vivo, mouse; settings: C57BL/6 mice; 4.4 μg/kg daily starting day 4 after immunization; p<0.01; FIG. 13
Description: Experimental autoimmune encephalomyelitis ([…]) was induced in C57BL/6 female mice (6-8 weeks of age) according to Savino et al., 2006, J Neuroimmunol 172:27-37, hereby incorporated by reference in its entirety. EAE was induced by subcutaneous immunization in the flanks with a total of 200 μg of MOG35-55 (Multiple Peptide Systems, San Diego, Calif., USA) in incomplete Freund's adjuvant (Sigma. St. Louis, Mo., USA) supplemented with 8 mg/ml of Mycobacterium tuberculosis (strain H37RA; Difco, Detroit, Mich., USA). Animals were housed in specific pathogen-free conditions, allowing access to food and water ad libitum. Mice received 500 ng of pertussin toxin (Sigma) i.v. at the time of immunization and 48 h later. Weight and clinical score were recorded daily (0=healthy, 1=flaccid tail, 2=ataxia, and/or hind-limbs paresis, or slow righting reflex, […] 3=paralysis of hind limb and/or paresis of forelimbs, 4=paraparesis of fore limb, 5=moribund or death). Food pellets and the drinking water were placed on Petri plates on the floor of the cage to enable sick mice to eat and drink. Peptide E (SEQ ID NO:31) was administered daily subcutaneously at a dose of 4.4 micrograms/kg-bw, starting on day 4 after immunization.

[3] = In vivo assessment of erythropoietic activity and neutralizing antibodies; set-up: species or system rat; settings: rats, 0.8 μg/kg s.c. 3 days/week over 130 days, FIG. 4; for increase in hemoglobin levels (hematocrit): EPO at equimolar dosage
Description: To evaluate the erythropoietic activity of tissue protective peptide F (SEQ ID NO:33) or peptide G (SEQ ID NO:40, as discussed supra a peptide constructed of the presenting residues of Helix B), the peptides were administered 0.8 μg/kg subcutaneously three time per week to male Sprague Dawley rats. The dosage schedule corresponded to the equivalent dose (on a molar basis) of EPO previously determined to be elicit maximum erythropoiesis. Hemoglobin concentration was determined periodically by use of an automated analyzer (Keska Corporation).

mouse P19 cells = test: P19 cell apoptosis upon withdrawal of serum; type: cell-based; settings: times more potent than EPO, on a weight basis; FIG. 6
Description: Alternatively, tissue protection afforded by peptides can be determined using an assay employing mouse P19 cells, which are neuronal-like and die via apoptosis upon withdrawal of serum. Tissue protection of peptide D (SEQ ID NO:30) was compared to that of EPO using P19 clone P19S1801A1 as previously published (Siren et al., 2001, PNAS 98:4044, hereby incorporated by reference in its entirety). Cells were maintained undifferentiated in DMEM supplemented with 2 mM Lglutamine; 100 units/ml penicillin G; […] streptomycin sulfate (GIBCO); 10% (vol/vol) FBS (HyClone), containing 1.2 g/liter NaHCO3 and 10 mM Hepes buffer, hereafter referred to as complete medium. Serum-free medium contained the same components as above with the deletion of serum and the addition of 5 mg/ml of insulin; […] of transferrin; 20 nM progesterone; […] putrescine; 30 nM Na2SeO3 (from Sigma). For the experiments, 50% confluent cells were pretreated overnight with EPO or vehicle, dissociated with trypsin, washed in serum-free medium, and plated in 25-cm^2 tissue culture flasks at a final density of 10^4 cells/cm^2 in serum-free medium alone or with added EPO. Cell viability and was determined by trypan blue exclusion and a hemacytometer.

Which “tissue protective activity in the sciatic nerve injury model (in words)” value (“tissue protective activity” for short) [1] does the source give for “APPRLICDSRVLERYLLEAKEAE (Peptide A - consists of the N-terminal portion of Helix A corresponding to EPO amino acids 1-23) [EPO fragment, amino acids 1-23]” here?
The value was “is tissue protective”.

Which “tissue protective activity” value [1] does the source give for “CSLNENIQEQLERALNSS (Peptide I - A chimera peptide linking the helix B exterior-presenting amino acids to the beta pleated sheet found within the AB loop of the EPO) [chimera: Peptide G + β-pleated sheet (33-39)]” here?
The value was “is tissue protective”.

For “GCAEHCSLNENITVPDTKVN (Peptide E - a portion of the A-B loop consisting of a small cysteine loop and a Beta-pleated sheet corresponding to EPO amino acids 28-47) [EPO fragment, amino acids 28-47]”, which “clinical score / neurological function in EAE” value [2] is on record?
The value was “significantly reduced both the time course and severity; also recorded: significantly improved neurological function”.

What about the “tissue protective activity” value [1] of the same sequence?
Its value is “is tissue protective”.

And the “tissue protective activity” value ([1]; listed as SEQ ID NO:31)?
The value was “exhibit tissue protective properties”.

For “NITTGCAEHCSLNE (Peptide B - consists of EPO amino acids 24-37) [EPO fragment, amino acids 24-37]”, which “increase in hemoglobin levels (hematocrit)” value [3] is on record?
The value was “Neither Peptide B nor Peptide C showed any increase in hematocrit”.

And the “tissue protective activity” value [1]?
The value was “is not tissue protective”.

Which results are given for “NITVPDTKVNFYAWKRMEVG (Peptide C - loop AB and N-terminal portion of helix B corresponding to EPO amino acids 38-57) [EPO fragment, amino acids 38-57]”?
increase in hemoglobin levels (hematocrit) [3]: Neither Peptide B nor Peptide C showed any increase in hematocrit; potency relative to EPO in preventing apoptosis of p19 cells (mouse P19 cells): at least 10; tissue protective activity in the sciatic nerve injury model (in words) [1]: exhibit tissue protective properties

For QEQLERALNSS [Peptide G, QEQLERALNSS], which “neutralizing antibody response against EPO” value [3] is on record?
The value was “no neutralizing antibody response was observed; also recorded: neither peptide elicits an antibody response”.

For “QEQLERALNSSLRRYINMLTRTR (Peptide J - A chimera peptide of Peptide G linked to pancreatic polypeptide helix)”, which “tissue protective activity” value [1] is on record?
Its value is “potent tissue protective activity”.

Which “neutralizing antibody response against EPO” value [3] does the source give for “RYLLEAKEAENITTGC [Peptide F, RYLLEAKEAENITTGC]” here?
Its value is “no neutralizing antibody response was observed; also recorded: neither peptide elicits an antibody response”.
